Converted amounts (≈) assume the structure as drawn.
What was measured:
Assay type in all cases: functional
[1] = system: Pseudomonas aeruginosa; assay: Antibacterial activity against Pseudomonas aeruginosa SR24
[2] = system: Staphylococcus aureus; assay: Antibacterial activity against Staphylococcus aureus FDA JC-1
[3] = system: Escherichia coli; assay: Antibacterial activity against Escherichia coli NIHJ JC-2
[4] = system: Enterococcus faecalis; assay: Antibacterial activity against Streptococcus faecalis SR 1004
[5] = system: Enterobacter cloacae; assay: Minimum inhibitory concentration for antibacterial activity against Enterobacter cloacae AI 3047
[6] = system: Serratia marcescens; assay: Minimum inhibitory concentration for antibacterial activity against Serratia marcescens A13880
[7] = system: Staphylococcus aureus; assay: Minimum inhibitory concentration for antibacterial activity against high resistant group of methicillin-resistant Staphylococcus aureus SR-3626(HR)
[8] = system: Proteus vulgaris; assay: Minimum inhibitory concentration for antibacterial activity against Proteus vulgaris CN-329
[9] = system: Staphylococcus aureus; assay: Minimum inhibitory concentration for antibacterial activity against low resistant group of methicillin-resistant Staphylococcus aureus SR-3131(LR)
[10] = system: Proteus vulgaris; assay: Minimum inhibitory concentration for antibacterial activity against Proteus vulgaris CN-329, activity expressed as MIC

Row | MIC [1] [µg/mL] | MIC [2] [µg/mL] | MIC [3] [µg/mL] | MIC [4] [µg/mL] | SMILES | MIC [5] [µg/mL] | MIC [6] [µg/mL] | MIC [7] [µg/mL] | MIC [8] [µg/mL] | MIC [9] [µg/mL] | MIC [10] [µg/mL]
1 | 50 (≈ 152 µM) | 0.1 (≈ 0.305 µM) | 1.6 (≈ 4.87 µM) | 6.3 (≈ 19.2 µM) | C[C@@H](O)[C@H]1C(=O)N2C(C(=O)[O-])=C(/C=C/c3cccc[n+]3C)[C@H](C)[C@H]12 |  |  |  |  |  | 
2 | 1.6 (≈ 5.06 µM) | 0.01 (≈ 0.0316 µM) | 0.2 (≈ 0.632 µM) | 12.5 (≈ 39.5 µM) | Cc1ccc[n+](CC2=C(C(=O)[O-])N3C(=O)[C@H]([C@@H](C)O)[C@H]3[C@H]2C)c1 |  |  |  |  |  | 
3 | 1.6 (≈ 4.63 µM) | 0.02 (≈ 0.0579 µM) | 0.4 (≈ 1.16 µM) | 25 (≈ 72.4 µM) | C[C@@H](O)[C@H]1C(=O)N2C(C(=O)[O-])=C(C[n+]3ccc(C(N)=O)cc3)[C@H](C)[C@H]12 |  |  |  |  |  | 
4 | 25 (≈ 76.1 µM) | 0.01 (≈ 0.0305 µM) | 0.1 (≈ 0.305 µM) | 0.2 (≈ 0.609 µM) | C[C@@H](O)[C@H]1C(=O)N2C(C(=O)[O-])=C(/C=C/c3ccc[n+](C)c3)[C@H](C)[C@H]12 |  |  |  |  |  | 
5 | 1.6 (≈ 4.63 µM) | 0.02 (≈ 0.0579 µM) | 0.4 (≈ 1.16 µM) | 25 (≈ 72.4 µM) | C[C@@H](O)[C@H]1C(=O)N2C(C(=O)[O-])=C(C[n+]3cccc(C(N)=O)c3)[C@H](C)[C@H]12 |  |  |  |  |  | 
6 | 25 (≈ 76.1 µM) | 0.05 (≈ 0.152 µM) | 0.4 (≈ 1.22 µM) | 1.6 (≈ 4.87 µM) | C[C@@H](O)[C@H]1C(=O)N2C(C(=O)[O-])=C(/C=C/c3cc[n+](C)cc3)[C@H](C)[C@H]12 |  |  |  |  |  | 
7 | 1.6 (≈ 5.04 µM) | 0.006 (≈ 0.0189 µM) | 0.2 (≈ 0.63 µM) | 6.3 (≈ 19.9 µM) | C[C@@H](O)[C@H]1C(=O)N2C(C(=O)[O-])=C(C[n+]3cccc(N)c3)[C@H](C)[C@H]12 |  |  |  |  |  | 
8 | 6.3 (≈ 18.4 µM) | 0.02 (≈ 0.0584 µM) | 0.1 (≈ 0.292 µM) | 0.8 (≈ 2.34 µM) | C/C(=C\C1=C(C(=O)[O-])N2C(=O)[C@H]([C@@H](C)O)[C@H]2[C@H]1C)C[n+]1ccccc1 |  |  |  |  |  | 

More lines, now with the values behind:

Row | SMILES | MIC [1] [µg/mL] | MIC [2] [µg/mL] | MIC [3] [µg/mL] | MIC [4] [µg/mL] | MIC [5] [µg/mL] | MIC [6] [µg/mL] | MIC [7] [µg/mL] | MIC [8] [µg/mL] | MIC [9] [µg/mL] | MIC [10] [µg/mL]
9 | C[C@@H](O)[C@H]1C(=O)N2C(C(=O)[O-])=C(/C=C/C[n+]3ccccc3)[C@H](C)[C@H]12 | 1.6 (≈ 4.87 µM) | 0.006 (≈ 0.0183 µM) | 0.05 (≈ 0.152 µM) | 0.4 (≈ 1.22 µM) | 0.2 (≈ 0.609 µM) | 0.8 (≈ 2.44 µM) | 50 (≈ 152 µM) | 0.2 (≈ 0.609 µM) | 0.05 (≈ 0.152 µM) | 
10 | C[C@@H](O)[C@H]1C(=O)N2C(C(=O)[O-])=C(/C=C/CSc3nncs3)[C@H](C)[C@H]12.[Na+] | 100 | 0.02 | 3.1 | 1.6 |  |  |  |  |  | 
11 | C[C@@H](O)[C@H]1C(=O)N2C(C(=O)[O-])=C(/C=C/COC(N)=O)[C@H](C)[C@H]12.[Na+] | 50 | 0.02 | 0.2 | 1.6 |  |  |  |  |  | 
12 | C[C@@H](O)[C@H]1C(=O)N2C(C(=O)[O-])=C(C[n+]3ccccc3)[C@H](C)[C@H]12 | 1.6 (≈ 5.29 µM) | < 0.006 | 0.1 (≈ 0.331 µM) | 6.3 (≈ 20.8 µM) | 0.2 (≈ 0.662 µM) | 1.6 (≈ 5.29 µM) | 50 (≈ 165 µM) |  | 0.1 (≈ 0.331 µM) | 0.4 (≈ 1.32 µM)
13 | C[C@@H](O)[C@H]1C(=O)N2C(C(=O)[O-])=C(C[n+]3ccc(-c4cnco4)cc3)[C@H](C)[C@H]12 | 1.6 (≈ 4.33 µM) | 0.01 (≈ 0.0271 µM) | 0.2 (≈ 0.541 µM) | 6.3 (≈ 17.1 µM) |  |  |  |  |  | 
14 | C[C@@H]([O-])[C@H]1C(=O)N2C(C(=O)[O-])=C(/C=C/C[N+]34CCC(CC3)CC4)[C@H](C)[C@H]12.[Na+] | 50 | 0.02 | 0.2 | 0.8 |  |  |  |  |  | 
15 | C[C@@H](O)[C@H]1C(=O)N2C(C(=O)O)=C(SCCNC=N)C[C@H]12 [IMIPENEM ANHYDROUS] | 1.6 (≈ 5.34 µM) | 0.006 (≈ 0.02 µM) | 0.1 (≈ 0.334 µM) | 1.6 (≈ 5.34 µM) | 0.4 (≈ 1.34 µM) | 0.8 (≈ 2.67 µM) | 50 (≈ 167 µM) | 0.4 (≈ 1.34 µM) | 0.05 (≈ 0.167 µM) | 
16 | C[C@@H]([O-])[C@H]1C(=O)N2C(C(=O)[O-])=C(/C=C/Cn3cc[n+]4ccccc34)[C@H](C)[C@H]12.[Na+] | 25 | 0.02 | 0.1 | 0.8 |  |  |  |  |  | 
17 | C[C@@H]([O-])[C@H]1C(=O)N2C(C(=O)[O-])=C(/C=C/CSc3cc[n+](C)cc3)[C@H](C)[C@H]12.[Na+] | 12.5 | 0.01 | 0.2 | 0.4 |  |  |  |  |  | 
